In US20160256535A1, “HEXAPEPTIDE AND USES THEREOF” (priority 2013, published 2016):
Primed or numbered codes have the meaning given here. No end group written: not given here. FITC′ = not defined here

What was measured:
MCF-7 cells = assay: Internalization of fluoresceinated hexapeptide by confocal and fluorescence microscopy; type: cell-based, human; settings: for internalization by confocal microscopy: 0.125 μM, 3 hr
Description: The confocal analysis was performed by placing the cells of human breast cancer (MCF-7, ATCC HTB-22) on suitable slides (MatTek, Ashland Corporation MA, U.S.). The hexapaptide to the concentration of 0.125 μM was then added to the cells.
The protocol used for the internalization of the PEP-6 FAM includes two separate experiments. A first experiment was done using PEP 6-FAM to 92 μM for 3 hr and the internalization was assessed. To these cells, already treated with PEP6-FAM, primary Ab anti-PEP 24 1:20 overnight at 4° C. was added and, as secondary antibody goat anti rabbit fluorescent CF 488A; and to 1 plate, already treated with PEP6 FAM, it was added the primary antibody anti rMnSOD 1:20 overnight and the secondary CF555 rodamynated donkey anti sheep. For 45 min-1 hr.
In the second experiment, the PEP 6-FAM was used at 92 μM to 1 hr and 3 hr with fixation in ethanol and paraformaldehyde, and for both times it was assessed the penetration alone, without the addition of the antibody and with the addition of primary antibody anti rMnSOD with three different dilutions (1500-1:1000-1:2000) in 5% NGS (Normal Goat Serum) in PBS +0.1% Triton overnight at 4° C. and, the secondary antibody anti rhodium CF 555 sheep 1:400 for 45′-1 hr. The nuclei were subsequently stained with 10 μg for ml^−1 DAPI (4′,6-diamidin-2-phenylindole, LIFE™ Thencologies).

Human Normal Lymphocytes = assay: Lymphocyte penetration, immunocytochemistry / immunofluorescence; type: cell-based
Description: Human Normal Lymphocytes cells were collected from healthy donors and purified using Ficoll Hystopaque density gradient centrifugation. The cells were cultured at a density of 1×10^6 cells/mL in RPMI media supplemented with 1% Penstrep and 10% FBS in a humidified atmosphere containing 5% CO2 at 37° C.
(§1) A cytospin was used to smear cells onto slides. The smears were fixed in Zamboni solution (4% paraformaldehyde, 15% picric acid) for 60 minutes and then washed with 1×PBS and incubated for five minutes with 3% hydrogen peroxide to quench endogenous peroxidase activity. Immunostaining was performed using the DAKO LSA+System HRP kit. Rabbit anti-rMnSOD-Lp (1:200), was incubated on slides for 30 minutes, followed by incubation with the biotinylated secondary antibody for 30 minutes and peroxidase-labeled streptavidin for 30 minutes. To complete the reaction, a substrate-chromogen solution was used. The smears were counterstained with hematoxylin.

cells = assay: Ability of hexapeptide conjugated to fluorescein to enter cells (immunocytochemistry); type: cell-based; settings: immunocytochemistry examination
Text: The test results are positive and confirms the previous data.

white blood cells = assay: White blood cell penetration, immunocytochemistry at light microscopy; type: cell-based, human; settings: healthy subject
Description: as §1, with “Lymphocytes were incubated for five hours in the presence of fluorescinated Hexapeptide 92 μM. A cytospin” for “A cytospin”

sperm = assay: Sperm fluorescence microscopy with propidium iodide; type: cell-based, bovine; settings: 1 mg/ml, 37° C., 1 hour; sperm without red (propidium iodide) fluorescence
Description: Three fresh ejaculate from bovine, obtained from two different bulls, were mixed and diluted in Tris solution with a concentration of 100×10^6 sperm/ml, incubated at 37° C. for 1 hour in the presence of 1 mg/ml of FITC-rMnSOD-LP (hexapeptide) and 1 mg/ml of propidium iodide.
The peptide also enters in the sperm with a non-intact membrane. These sperm must not to be taken into consideration in the penetration study because if the membrane is broken, its permeability is not selective. The hexapeptide enters even in the dead, but for normal diffusion, not for selective activity of intact membranes.

Jurkat cells = assay: Jurkat cell penetration, immunofluorescence; type: cell-based, human; settings: 92 μM, 3 h
Description: Jurkat cells (ATTC, UK) were seeded at density of 150000 cells/well in RPMI media supplemented with 1% Penstrep and 10% FBS in a humidified atmosphere containing 5% CO2 at 37°. The next day, the cells were incubated with 92 μM AVCGTG (SEQ ID NO. 1)-FITC for 3 h in multiwell 24. Subsequently, a cytospin was used to smear cells onto slides. The smears were fixed with 4% paraformaldehyde/PBS for 10 min and rinsed twice with 1×PBS containing 0.1% Triton to remove traces of fixative. Cell samples without AVCGTG (SEQ ID NO. 1)-FITC were used for the background control. After blocking solution with 5% NGS (Normal Goat Serum, VECTOR) 1×PBS+0,1% Triton X-100, was added for 30 minutes. After removing the blocking solution, cells were incubated with primary antibody hexapeptide, diluted 1:200 in blocking solution, overnight at 4° C. The following day, after washing with lx PBS and 0.1% Triton X-100 for 10 minutes, secondary antibody (ALEXA FLUO 488A, SANTACRUZ) diluted 1:400 with 1×PBS and 0.1% Triton X-100 for 2 h was added. The excess of antibody was removed with 3 washes with 1×PBS.
Nuclei were stained with DAPI (1 μg/mL). The slides were mounted and stored in the dark at 4° C. and then observed by fluorescence microscope ZEISS HB050 by using the software Axion Vision Re1.4.8.

## AVCGTG (SEQ ID NO. 1)-FITC (AVCGTG-{FITC′})
MCF-7 cells
  penetration by fluorescence optical microscopy: penetrates into the MCF-7 breast cancer cells
MCF-7 cells; listed as FITC-PEP
  internalization by confocal microscopy: internalized into the cytoplasm
MCF-7 cells; listed as FTC-peptide
  internalization by confocal microscopy: internalized in the cytoplasm
Human Normal Lymphocytes; 3 hour incubation
  internalization in lymphocytes: most cells internalized
Human Normal Lymphocytes; lymphocytes, 92 μM, 3 hours
  percentage of labeled cells: 95%
cells
  penetration into the cells: penetrates into the cells
White blood cells
  penetration into white blood cells: penetrates in white blood cells
sperm
  viable sperm showing green fluorescence in the mid piece of the tail: 100%
Jurkat cells
  penetration into Jurkat cells: penetrates in Jurkat cells
